Data set [1] deals with Achromobacter xylosaxidans (HNA001). The experiment in a line: MIC/MBC antibiotic sensitivity (CLSI). Format: cell-based, Achromobacter xylosoxidans. As to the method: The new compounds of the invention were synthesized following the general method of preparation (Tetrahedron, 2001, 57, 1671-1675), from the reaction between an intermediary compound of the acyl thiourea and HgCl2 in presence of trimethylamine. The products were adequately characterized regarding its chemistry. The antibacterial activity of the new compounds was assayed against two Gram-positive reference strains: Staphylococcus aureus (ATCC6538) and Bacillus cereus (ATCC10876), a fermenting Gram-negative strain: Escherichia coli (ATCC25922), and 26 non-fermenting Gram-negative isolates, including 3 reference strains: Pseudomonas aeruginosa (PAO1), Bordetella bronchiseptica (9.73H+), and Inquilinus limosus (DSM16000), and 23 isolates recovered from patients suffering from cystic fibrosis, including one Achromobacter xylosoxidans isolate, and 22 isolates belonging to the Burkholderia cepacia complex. The later were selected because they presented resistance to a high number of antimicrobial compounds, among a panel of 125 clinical isolates previously analyzed for its resistance against 17 antimicrobial compounds (1,2). The antibiotic sensitivity studies were performed by applying two quantitative methods which allow to determine the minimum inhibitory concentration (MIC) and the minimum bactericidal concentration (MBC).
The compounds obtained in Examples 1 and 2 were assayed against 23 isolates recovered from the sputum of patients suffering from cystic fibrosis being treated at the Sor Maria Ludovica Children Hospital (La Plata, Buenos Aires, Argentina). Nineteen of these isolates were selected for being highly resistant to most of the antimicrobial agents of clinical use from a panel of 125 isolates previously characterized in Martina et al. (1). Reference strains were also included: Gram (+) bacteria: B. cereus and S. aureus, fermenting Gram (−) bacteria: E. coli, and non-fermenting Gram (−) bacteria: Inquilinus limosus (DSM16000), B. bronchiseptica, and Pseudomonas aeruginosa (PAO1). The antibiotic sensitivity studies were performed applying two quantitative methods which allow to determine the minimum inhibitory concentration (MIC) and the minimum bactericidal concentration (MBC) according to the criteria established by the Clinical and Laboratory Standards Institute (CLSI) (4). For comparative purposes, three antibiotics commonly used in the treatment of pulmonary infections in cystic fibrosis patients were included in the study: tobramycin, ceftazidime and meropenem.

Data set [2] has as its system Burkholderia multivorans (CBC 018). Nature of the data set: MIC/MBC antibiotic sensitivity (CLSI). The class given is cell-based. The conditions noted are these: for MBC: read-out: MBC. Summed up:
(§1)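 Read-outs were MIC and MBC, both obtained by quantitative methods applied according to Clinical and Laboratory Standards Institute criteria. Test organisms included highly resistant Burkholderia isolates from cystic fibrosis patients' sputum alongside a Gram-positive reference strain.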

For data set [3], the system named is Burkholderia cenocepacia (HE001). Nature of the data set: MIC/MBC antibiotic sensitivity (CLSI). Format: cell-based. Summed up:
as §1

Data set [4] deals with Burkholderia cenocepacia (CBC 036). The experiment in a line: MIC/MBC antibiotic sensitivity (CLSI). The class given is cell-based. The conditions noted are these: for MBC: read-out: MBC. Summed up:
as §1

In data set [5] the test system is Burkholderia multivorans (CBC 022). Nature of the data set: MIC/MBC antibiotic sensitivity (CLSI). The class given is cell-based. The method in brief: as §1
A short description of data set [6]: Cytotoxicity assay, Trypan blue vital staining. Format: cell-based, human. To be noted: human, THP-I monocyte cells; THP-I cells, Trypan Blue; highest drug concentration at which 50% of cells are viable compared with control. On the procedure: (§2) For example, the MIC values for E. coli of the guanidine derivatives disclosed in patent application WO 2004073709 A1 are higher than 1 μg/ml. The guanidine derivatives disclosed by Hensler and colleagues (Hensler, M. E.; Bernstein, G.; Nizet, V.; Nefzi, A., Bioorganic & Medicinal Chemistry Letters 2006, 16, 5073-5079) have MIC values higher than 2.5 μg/ml against E. coli. […] In vitro cytotoxicity assays were performed using the human monocyte cell line THP-I and vital staining with Trypan Blue (3). The IC50 value was defined as the higher drug concentration at which 50% of cells are viable compared with the control. […] The Selectivity Index (SI), defined as the ratio between the IC50 and the MIC for each compound, was calculated. Compound H-BDF has an SI>10, which makes it a good antimicrobial candidate according to the criteria set up by Orme (5).
(§3) For assaying the cytotoxicity of the compounds obtained in Examples 1 and 2, cell viability by vital coloration exclusion with Trypan blue (3). The studies were performed using the monocyte cell line THP-I. The IC50 value was defined as the highest drug concentration at which 50% of the cells are viable as compared with the control.

The subject of data set [7] is human monocyte cell line THP-I. Nature of the data set: Cytotoxicity assay, Trypan blue vital staining. Format: cell-based. To be noted: ratio IC50 / MIC, strain not stated. As to the method: as §2, §3
The subject of data set [8] is Burkholderia seminalis (CBC 040). The conditions noted are these: reference (1); cited from earlier work.
[9] abbreviates: Achromobacter xylosaxidans (HNA001).
The mark [10] stands for this setting: Achromobacter xylosaxidans (HNA001), read-out: MIC.
[11] abbreviates: Burkholderia multivorans (CBC 018).
Where [12] appears, read: Burkholderia multivorans (CBC 018), read-out: MIC.
The mark [13] stands for this setting: Burkholderia cenocepacia (HE001).
The mark [14] stands for this setting: Burkholderia cenocepacia (HE001), read-out: MIC.
Setting [15] is: Burkholderia cenocepacia (CBC 036).
Setting [16] is: Burkholderia cenocepacia (CBC 036), read-out: MIC.
Setting [17] is: Burkholderia multivorans (CBC 022).
[18] abbreviates: Burkholderia multivorans (CBC 022), read-out: MIC.

In brackets after ≈: the same amount, converted by molar mass. Read-outs that look alike come from different tables or passages of the source.

`O=C(NC(=Nc1c(Br)cc(F)cc1Br)Nc1c(F)cc(F)cc1Br)C12CC3CC(CC(C3)C1)C2` [H-DBF, N—(N-(2-bromo-4,6-difluorophenyl)-N′-(2,6-dibromo-4-fluorophenyl)carbamimidoyl) adamantane-1-carboxamide] registered a melting point of 144 °C. Further, the MBC in data set [1] (setting [9]) worked out at 31.2 µg/mL (≈ 47.1 µM). In addition, the MIC in data set [1] (setting [10]) is 7.8 µg/mL (≈ 11.7 µM). Moreover, the MBC in data set [2] (setting [11]) was above 132 µg/mL. Further, the MIC in data set [2] (setting [12]) was 66.4 µg/mL (≈ 100 µM). In addition, the MBC in [3] (setting [13]) is above 61.2 µg/mL. The MIC in data set [3] (setting [14]) worked out at 61.2 µg/mL (≈ 92.2 µM). The MBC in data set [4] (setting [15]) was 132 µg/mL (≈ 199 µM). The MIC in [4] (setting [16]) worked out at 66.4 µg/mL (≈ 100 µM). The MBC in data set [5] (setting [17]) is above 133 µg/mL. Besides, the MIC in data set [5] (setting [18]) is 133 µg/mL (≈ 200 µM). Besides, the IC50 in [6] is above 132 µg/mL.
`O=C(NC(=Nc1c(F)cc(F)cc1Br)Nc1c(F)cc(F)cc1Br)C12CC3CC(CC(C3)C1)C2` [H-BDF, N—(N,N′-bis(2-bromo-4,6-difluorophenyl)carbamimidoyl)adamantane-1-carboxamide] returned a melting point of 174 °C. This compound also registered an MBC in data set [1] (setting [9]) below 0.48 µg/mL. In addition, the MIC in data set [1] (setting [10]) was below 0.48 µg/mL. Also, the MBC in data set [2] (setting [11]) was 7.81 µg/mL (≈ 12.9 µM). For the same compound, the MIC in data set [2] (setting [12]) is 1.95 µg/mL (≈ 3.23 µM). Moreover, the MBC in [3] (setting [13]) was 61.2 µg/mL (≈ 102 µM). Moreover, the MIC in [3] (setting [14]) worked out at 3.9 µg/mL (≈ 6.46 µM). In addition, the MBC in data set [4] (setting [15]) is 7.81 µg/mL (≈ 12.9 µM). The MIC in data set [4] (setting [16]) came out at 1.95 µg/mL (≈ 3.23 µM). The MBC in data set [5] (setting [17]) amounted to 7.8 µg/mL (≈ 12.9 µM). The MIC in data set [5] (setting [18]) came out at 3.9 µg/mL (≈ 6.46 µM). Further, the “Selectivity Index (SI)” value in data set [7] is listed as above 10. For the same compound, the IC50 in [6] is 15.2 µg/mL (≈ 25.3 µM).
Turning to `C[C@@H](O)[C@H]1C(=O)N2C(C(=O)O)=C(S[C@@H]3CN[C@H](C(=O)N(C)C)C3)[C@H](C)[C@H]12` [Meropenem, meropenem], the MBC amounted to 7.81 µg/mL (≈ 20.4 µM) in [1] (setting [9]), 3.9 µg/mL (≈ 10.2 µM) in data set [2] (setting [11]) and 7.81 µg/mL (≈ 20.4 µM) in data set [5] (setting [17]). For the same compound, the MIC in [1] (Achromobacter, Meropenem, CLSI criteria, A. xylosaxidans (HNA001), read-out: MIC (R/I/S category)) is below 4 µg/mL; in [2] (Burkholderia multivorans, Meropenem, CLSI criteria, B. multivorans (CBC 018), read-out: MIC (R/I/S category)), below 4 µg/mL; in data set [3] (Burkholderia cenocepacia, Meropenem, CLSI criteria, B. cenocepacia (HE001), read-out: MIC (R/I/S category)) it was above 16 µg/mL; in data set [4] (Burkholderia cenocepacia, Meropenem, CLSI criteria, B. cenocepacia (CBC 036), read-out: MIC (R/I/S category)) it was above 16 µg/mL; in [5] (Burkholderia multivorans, Meropenem, CLSI criteria, B. multivorans (CBC 022), read-out: MIC (R/I/S category)), below 4 µg/mL. The “resistance of the strain to commercial antibiotics” value in data set [8] is “resistant”.
As to `NC[C@H]1O[C@H](O[C@H]2[C@H](O)[C@@H](O[C@H]3O[C@H](CO)[C@@H](O)[C@H](N)[C@H]3O)[C@H](N)C[C@@H]2N)[C@H](N)C[C@@H]1O` [Tobramucin, tobramycin], the MIC in [1] (Achromobacter, Tobramucin, CLSI criteria, A. xylosaxidans (HNA001), read-out: MIC (R/I/S category)) was above 16 µg/mL; in data set [2] (Burkholderia multivorans, Tobramucin, CLSI criteria, B. multivorans (CBC 018), read-out: MIC (R/I/S category)), above 16 µg/mL; in data set [3] (Burkholderia cenocepacia, Tobramucin, CLSI criteria, B. cenocepacia (HE001), read-out: MIC (R/I/S category)), above 16 µg/mL; in [4] (Burkholderia cenocepacia, Tobramucin, CLSI criteria, B. cenocepacia (CBC 036), read-out: MIC (R/I/S category)) it was above 16 µg/mL; in [5] (Burkholderia multivorans, Tobramucin, CLSI criteria, B. multivorans (CBC 022), read-out: MIC (R/I/S category)) it was above 16 µg/mL.

Values taken from patent US10857110B2, “Antibacterial compounds” (CONSEJO NACIONAL DE INVESTIGACIONES CIENTÍFICAS Y TÉCNICAS …, priority 2016, dated 2020).
